The values below come from article PMC8309108, “Rapid and Sensitive Quantification of Intracellular Glycyl-Sarcosine for Semi-High-Throughput Screening for Inhibitors of PEPT-1” (Pharmaceutics, 2021).

The target of series [1] is T1, PEPT-1 (Homo sapiens, UniProt P46059).
T1 construct: allowed to differentiate for at least 7 d to ensure sufficient PEPT-1 expression; host or cells: Caco-2
T1 sequence (P46059 1-708): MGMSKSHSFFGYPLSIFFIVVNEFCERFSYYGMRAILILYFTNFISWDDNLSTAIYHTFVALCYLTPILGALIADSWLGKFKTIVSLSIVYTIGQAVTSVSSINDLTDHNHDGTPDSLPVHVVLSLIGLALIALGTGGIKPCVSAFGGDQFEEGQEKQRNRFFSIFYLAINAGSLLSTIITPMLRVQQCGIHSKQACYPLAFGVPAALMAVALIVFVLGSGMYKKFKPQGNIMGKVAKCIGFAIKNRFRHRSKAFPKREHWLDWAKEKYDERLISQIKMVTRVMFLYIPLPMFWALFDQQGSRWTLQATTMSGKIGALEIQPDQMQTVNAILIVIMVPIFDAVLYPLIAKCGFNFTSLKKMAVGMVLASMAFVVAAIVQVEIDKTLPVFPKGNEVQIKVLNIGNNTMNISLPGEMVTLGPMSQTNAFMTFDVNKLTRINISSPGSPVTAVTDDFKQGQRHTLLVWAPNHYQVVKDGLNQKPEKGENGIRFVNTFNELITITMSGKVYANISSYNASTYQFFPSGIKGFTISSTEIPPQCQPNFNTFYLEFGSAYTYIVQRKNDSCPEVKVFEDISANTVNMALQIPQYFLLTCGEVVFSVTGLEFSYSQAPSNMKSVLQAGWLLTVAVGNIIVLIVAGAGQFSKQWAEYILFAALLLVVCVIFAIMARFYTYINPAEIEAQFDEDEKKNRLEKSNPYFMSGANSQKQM
Kind of series: Inhibition of PEPT-1 mediated Gly-Sar uptake in Caco-2 cells (UPLC-MS/MS quantification of intracellular Gly-Sar). The class given is cell-based. The following applies: for IC50: 7 d differentiation, 37 °C, pH = 6.0, three independent experiments; for Ki: converted from IC50 with the IC50-to-Ki tool, assuming competitive inhibition and a Km of 860 µM for Gly-Sar, read-out: calculated Ki. As for the experimental part: Caco-2 cells were cultivated in DMEM supplemented with 10% FBS, glutamine (2 mM), penicillin (100 U/mL), streptomycin (100 µg/mL), and 1% NEAS. They were kept at 37 °C and 5% CO2 and passaged once a week. For validation and uptake experiments, cells were seeded in 96-well plates at a density of 6.25 × 10^4 cells/cm^2 and allowed to differentiate for at least 7 d to ensure sufficient PEPT-1 expression. The uptake buffer (MES) was prepared as previously described by Sun et al. and contained 50 mM MES, 136.9 mM NaCl, 5.4 mM KCl, 1.26 mM CaCl2, 0.81 mM MgSO4 × 7 H2O, 0.5 mM Na2HPO4, 0.44 mM KH2PO4, 0.42 mM NaHCO3, and 5.54 mM glucose. The pH value of the uptake buffer was adjusted to pH = 6.0 using either HCl or NaOH solutions. Gly-Sar uptake was tested after 7, 24, and 28 d of Caco-2 cell differentiation. […] After an incubation period of 10 min at 37 °C under gentle agitation, transport was terminated by removing the solution and washing the cells with ice-cold MES buffer (100 µL/well) thrice while the plate was kept on ice. Afterwards, cells were lysed in the 96-well cell culture plate with aqueous NH4OH (10%, 50 µL/well) and sample preparation was performed as described below.
Sample preparation was performed directly in the 96-well cell culture plates. Cell lysates (50 µL) were spiked with 25 µL IS spike solution and, depending on the sample type, with either 5 µL of the respective calibration or QC solution (calibration and QC samples) or with 5 µL H2O/ACN (95/5, v/v) + 0.1% FA for volume compensation (study samples). Subsequently, all samples were filled with 180 µL ACN + 0.1% FA for protein precipitation and centrifuged for 10 min at 800 g. Finally, the 96-well plates were transferred into the Sample Manager for direct injection onto the UPLC-MS/MS system.
The quantification of Gly-Sar in cell homogenates was performed on a UPLC-MS/MS system consisting of a triple-stage quadrupole mass spectrometer (Waters Xevo TQ-XS with Z-spray ESI source) and an Acquity Classic UPLC® (Waters, Milford, MA, USA). Chromatographic separation was achieved on a Waters Cortecs UPLC® HILIC column (90 Å, 1.6 µm, 2.1 × 50 mm) heated to 60 °C with the injection volume set to 10 µL and a flow rate of 0.4 mL/min. The mobile phase consisted of H2O/ACN (95/5, v/v) + 0.1% FA (aqueous eluent; A) and ACN + 0.1% FA (ACN eluent; B). Gly-Sar was eluted with an isocratic composition of 16% A/84% B for 3 min. Subsequently, the conditions were changed to 50% A/50% B within 0.5 min and maintained for 0.5 min to flush the column. Afterwards, the initial ratio of 16% A and 84% B was restored during 0.5 min. The mass spectrometer was operated using an electrospray ionization (ESI) source in the positive ion detection mode. Quantification of Gly-Sar and IS was performed by selected reaction monitoring (SRM) using argon collision gas for collision-induced dissociation (CID). Mass spectrometric parameters were optimized for the detection of Gly-Sar and the IS using the auto-optimization feature IntelliStart of the MassLynx V4.2 system software (Waters, Milford, MA, USA).
Calibration curves were fitted by the Waters TargetLynx V4.2 software (Waters, Milford, MA, USA) using 1/x^2-weighted linear regressions of the peak area ratios of Gly-Sar and the IS. General calculations were performed using Microsoft Excel 2010 ([…]). IC50 values (i.e., the inhibitor concentration, which causes a baseline-normalized half-maximal Gly-Sar uptake) were calculated using the GraphPad Prism 9 software (version 9.1.0; GraphPad Software Inc., La Jolla, CA, USA). Intracellular Gly-Sar concentrations at varying inhibitor concentrations were fitted with nonlinear regression to a four-parameter concentration–response curve (4PL) according to the equation: […]

The target of series [2] is PEPT-1. Particulars: read-out: reported Ki; cited from earlier work.
Series [3] can be described thus: Stability of Gly-Sar in processed cell lysate and spike solutions. The series is classed as physicochemical. The procedure:
The assay to quantify Gly-Sar in cell homogenates was validated following the EMA and FDA guidelines on bioanalytical method validation. For this purpose, the linearity, accuracy, precision, selectivity, stability, recovery, and matrix effect of the assay were determined in three validation batches, which included eight calibration samples in duplicates and 24 QC samples at four concentrations (LLOQ, low, mid, and high QC) in sixfold determination. Accuracy (%) is the degree of agreement between the determined value and known true value and was subsequently determined by dividing the quantified mean concentration by the nominal concentration. Precision (% CV) describes the degree of agreement between individual measurements of the same analyte and was calculated by dividing the standard deviation by the quantified mean of the measurements. Chromatograms of blank cell lysate samples from six different cell passage numbers and of corresponding spiked samples were assessed for interfering signals at the retention time of Gly-Sar and IS to determine the selectivity of the method. […] Recovery was evaluated for low, mid, and high QC concentration of Gly-Sar by the comparison of peak areas of QC samples spiked after extraction with the respective peak areas of […] spiked after extraction. […] Gly-Sar integrity was further evaluated in the spike solutions. […]

Series [4] has as its target T1, PEPT-1. On the set-up: method as in PMID 22490229. The following applies: cited from earlier work.
[5] abbreviates: Caco-2 cells, 20 µM Gly-Sar, 10 min.

“Also recorded” adds a separate entry of the source. Non-standard residues stand in square brackets, D forms with d. Residues, ends and D or L forms follow the SMILES beside them. Sar = CNCC(=O)O Some results are limits rather than exact numbers.

Usually IC50 stands for the concentration at which inhibition is half-maximal. Lower therefore signals higher potency. As a reminder, the Ki is the dissociation constant of the complex between target and ligand, obtained from inhibition or displacement. One may read the Km as the substrate concentration at which the rate is half of its maximum.

Turning to `NCC(=O)N1CCC[C@H]1C(=O)O` [Gly-Pro, glycyl-proline] (H-Gly-Pro-OH), on PEPT-1 [1] (setting [5]), the IC50 was found to be 257 ± 28 µM. For the same molecule, the results for the Ki at PEPT-1 [1] and on PEPT-1 [2] were 250 µM and 300 µM, respectively.
As to `Nc1nc2c(ncn2COCCO)c(=O)[nH]1` [aciclovir], on PEPT-1 [1] (Caco-2 cells, 20 µM Gly-Sar, 10 min, pH = 6.0, 0.1–5000 µM inhibitor), the “inhibition of Gly-Sar uptake (in words)” value is “no inhibition; also recorded: did not interfere with Gly-Sar uptake; also recorded: did no inhibit the Gly-Sar uptake”.
On to `CC(C)[C@H](N)C(=O)OCCOCn1cnc2c(=O)[nH]c(N)nc21` [valaciclovir], for which the half-maximal inhibitory concentration (IC50) on PEPT-1 [1] (setting [5]) stood at 894 ± 309 µM. Further, the values for the Ki on PEPT-1 [1] and on PEPT-1 [2] were 874 µM and 740 µM, respectively.
The molecule `CCCCc1nc(Cl)c(CO)n1Cc1ccc(-c2ccccc2-c2nn[nH]n2)cc1` [losartan] displayed an IC50 against PEPT-1 [1] (setting [5]) of 45.1 ± 15.8 µM. Also, the results for the Ki on PEPT-1 [1] and at PEPT-1 [2] were 44 µM and 24 µM, respectively.
For the molecule `CN(CC(=O)O)C(=O)CN` [Gly-Sar, glycyl-sarcosine] (H-Gly-[Sar]-OH), the “fraction of Gly-Sar uptake that is PEPT-1 mediated” value on PEPT-1 [1] (Caco-2 cells, 10 min incubation) was “around 86%”. In addition, the “ratio of bottom to top of the fitted sigmoidal curves (non-inhibited, non-PEPT-1 specific Gly-Sar uptake)” value at PEPT-1 [1] (mean over all measured IC50 determinations, Caco-2 cells) was 14.0 ± 6.7%. Further, the “deviation of peak areas from the initial values” in series [3] (samples stored in the autosampler, over 24 h) is listed as less than 15%. In series [3] (spike solutions in H2O/ACN (95/5, v/v) + 0.1% FA), the “time stable in spike solutions” value is “at least 9 months”. Besides, the Km at PEPT-1 [4] is 860 µM.
